Measurements published in US9428519B2, “Acylated derivative of homoharringtonine, preparation method therefor, and application thereof” (HANGZHOU BENSHENG PHARMACEUTICAL CO., LTD., priority 2011, dated 2016).
Converted amounts (≈) assume the structure as drawn.

Tests used:
[1] = test system: Becap37 (human breast cancer cell); experiment: MTT growth inhibition of human solid tumor cells, 72 h; format: cell-based
Method in brief: (§1)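 4000 cells/well, DMEM high glucose + 10% FBS, 37° C, 5% CO2; 24 h attachment. Add compound, various concentrations, 72 h. MTT readout; % viability vs untreated control (100%).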

[2] = test system: U87 MG (malignant glioma cell); experiment: as above; format: cell-based
Method in brief: as §1

[3] = test system: Hep-2 (laryngeal carcinoma); experiment: as above; format: cell-based
Method in brief: as §1

[4] = test system: A549 (human lung cancer); experiment: as above; format: cell-based
Method in brief: as §1

[5] = test system: Huh7 (human liver cancer cell); experiment: as above; format: cell-based
Method in brief: as §1

[6] = test system: CNE (nasopharyngeal carcinoma cell); experiment: as above; format: cell-based; settings: MTT
Method in brief: as §1

[7] = test system: MGC 803 (human gastric cancer cell); experiment: as above; format: cell-based
Method in brief: as §1

[8] = test system: RKO (human colon adenocarcinoma cell); experiment: as above; format: cell-based; settings: MTT
Method in brief: as §1

[9] = test system: MG63 (osteosarcoma); experiment: as above; format: cell-based
Method in brief: as §1

[10] = test system: Hela (human cervical cancer cell); experiment: as above; format: cell-based; settings: MTT
Method in brief: as §1

[11] = test system: CaES-17 (esophageal cancer cell); experiment: as above; format: cell-based
Method in brief: as §1

[12] = test system: PC-3 (prostate cancer); experiment: as above; format: cell-based; settings: MTT
Method in brief: as §1

[13] = test system: PANC-1 (pancreatic cancer); experiment: as above; format: cell-based
Method in brief: as §1

[14] = test system: SK-OV-3 (ovarian cancer cell); experiment: as above; format: cell-based
Method in brief: as §1

[15] = test system: RPMI8226 (multiple myeloma); experiment: MTT growth inhibition of multiple myeloma cells, 72 h; format: cell-based, human
Method in brief: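 Growth inhibition read by MTT after 72 h compound exposure (37 °C, 5% CO2) of 6000 RPMI8226 cells per well in 1640 medium plus 10% fetal bovine serum. Viability expressed against untreated cells (100%), from which the 72 h IC50 was derived.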

[16] = test system: NB4 (acute promyelocytic leukemia, AML); experiment: MTT growth inhibition of leukemia cells, 72 h; format: cell-based, human; settings: MTT
Method in brief: (§2)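 Readout: MTT viability after 72 h, untreated wells = 100%, IC50 derived from viability across concentrations. Cells seeded at 6000/well in 1640 medium + 10% FBS, dosed with a concentration series, held at 37 °C under 5% CO2.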

[17] = test system: Jurkat (acute lymphoblastic leukemia, ALL); experiment: MTT growth inhibition of leukemia cells, 72 h; format: cell-based, human
Method in brief: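 Growth inhibition of the Jurkat ALL line was measured by MTT after 72 hours of compound exposure at 37° C. under 5% CO2. Wells of a 96-well plate held 6000 cells in 1640 medium plus 10% fetal bovine serum; untreated controls defined 100% viability, and inhibitory concentrations were derived from percent viability.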

[18] = test system: Kasumi-1 (acute myeloid leukemia M2 type, AML-M2); experiment: MTT growth inhibition of leukemia cells, 72 h; format: cell-based, human
Method in brief: as §2

[19] = test system: K562/adr (drug-resistant, chronic myeloid leukemia, CML); experiment: MTT growth inhibition of leukemia cells, 72 h; format: cell-based, human; settings: MTT
Method in brief: as §2

[20] = test system: H9 (acute lymphoblastic leukemia, ALL); experiment: MTT growth inhibition of leukemia cells, 72 h; format: cell-based, human; settings: MTT
Method in brief: as §2

COC(=O)C[C@](O)(CCCC(C)(C)OC(=O)c1cccnc1Cl)C(=O)O[C@@H]1C(OC)=C[C@]23CCCN2CCc2cc4c(cc2[C@H]13)OCO4 [BS-HH-066] was tested, and the IC50 ([1]; Homo sapiens) was 0.02 µg/mL (≈ 0.0292 µM), the IC90 ([1]; Homo sapiens) was 5.63 µg/mL (≈ 8.22 µM) and the IC50 ([2]; Homo sapiens, U-87 MG) was 0.007 µg/mL (≈ 0.0102 µM). For the same compound, the IC90 ([2]; Homo sapiens, U-87 MG) was 0.048 µg/mL (≈ 0.0701 µM), the IC50 ([3]; Homo sapiens, HEp-2) was 0.025 µg/mL (≈ 0.0365 µM) and the IC90 ([3]; Homo sapiens, HEp-2) was over 16 µg/mL. It also gave an IC50 ([4]; Homo sapiens, A549) of 0.03 µg/mL (≈ 0.0438 µM), an IC90 ([4]; Homo sapiens, A549) of over 16 µg/mL and an IC50 ([5]; Homo sapiens, Huh-7) of 0.0016 µg/mL (≈ 0.00234 µM). The IC90 ([5]; Homo sapiens, Huh-7) was 0.023 µg/mL (≈ 0.0336 µM), the IC50 ([6]; Homo sapiens) was 0.03 µg/mL (≈ 0.0438 µM) and the IC90 ([6]; Homo sapiens) was over 16 µg/mL. For the same compound, the IC50 ([7]; Homo sapiens, MGC-803) was 0.005 µg/mL (≈ 0.0073 µM), the IC90 ([7]; Homo sapiens, MGC-803) was 0.052 µg/mL (≈ 0.0759 µM) and the IC50 ([8]; Homo sapiens) was 0.003 µg/mL (≈ 0.00438 µM). The IC90 ([8]; Homo sapiens) was 0.023 µg/mL (≈ 0.0336 µM), the IC50 ([9]; Homo sapiens, MG-63, MTT) was 0.0032 µg/mL (≈ 0.00467 µM) and the IC90 ([9]; Homo sapiens, MG-63, MTT) was 0.2 µg/mL (≈ 0.292 µM). For the same compound, the IC50 ([10]; Homo sapiens, HeLa) was 0.021 µg/mL (≈ 0.0306 µM), the IC90 ([10]; Homo sapiens, HeLa) was 16 µg/mL (≈ 23.4 µM) and the IC50 ([11]; Homo sapiens, CaEs17) was 0.049 µg/mL (≈ 0.0715 µM). For the same compound, the IC90 ([11]; Homo sapiens, CaEs17) was 16 µg/mL (≈ 23.4 µM), the IC50 ([12]; Homo sapiens) was 0.1 µg/mL (≈ 0.146 µM) and the IC90 ([12]; Homo sapiens) was over 16 µg/mL. The IC50 ([13]; Homo sapiens, PANC-1, MTT) was 0.026 µg/mL (≈ 0.0379 µM), the IC90 ([13]; Homo sapiens, PANC-1, MTT) was over 16 µg/mL and the IC50 ([14]; Homo sapiens, SK-OV-3, MTT) was 0.051 µg/mL (≈ 0.0744 µM). The IC90 ([14]; Homo sapiens, SK-OV-3, MTT) was over 16 µg/mL, the IC50 ([15]; Homo sapiens, RPMI-8226, MTT) was 0.006 µg/mL (≈ 0.00876 µM) and the IC90 ([15]; Homo sapiens, RPMI-8226, MTT) was 0.033 µg/mL (≈ 0.0482 µM). It also gave an IC50 ([16]; Homo sapiens) of 0.002 µg/mL (≈ 0.00292 µM), an IC90 ([16]; Homo sapiens) of 0.004 µg/mL (≈ 0.00584 µM) and an IC50 ([17]; Homo sapiens, Jurkat) of 0.005 µg/mL (≈ 0.0073 µM). It also gave an IC90 ([17]; Homo sapiens, Jurkat) of at least 16 µg/mL, an IC50 ([18]; Homo sapiens, Kasumi 1, MTT) of 0.0007 µg/mL (≈ 0.00102 µM) and an IC90 ([18]; Homo sapiens, Kasumi 1, MTT) of 0.002 µg/mL (≈ 0.00292 µM). The “improvement of anti-Kasumi-1 activity compared with homoharringtonine” value ([18]; vs HHT) was “more than 7 fold”, the IC50 ([19]; Homo sapiens, K562/Adr) was 0.03 µg/mL (≈ 0.0438 µM) and the IC90 ([19]; Homo sapiens, K562/Adr) was 3.18 µg/mL (≈ 4.64 µM). For the same compound, the IC50 ([20]; Homo sapiens) was 0.003 µg/mL (≈ 0.00438 µM) and the IC90 ([20]; Homo sapiens) was 0.01 µg/mL (≈ 0.0146 µM).

In the case of COC(=O)C[C@@](CCCC(C)(C)OC(=O)c1scnc1C)(OC(=O)c1scnc1C)C(=O)O[C@@H]1C(OC)=C[C@]23CCCN2CCc2cc4c(cc2[C@H]13)OCO4 [BS-HH-0722], the “IC50 Becap37” value [1] is reported as 0.47 µg/mL (≈ 0.591 µM), the “IC90 Becap37” value [1] is reported as 16 µg/mL (≈ 20.1 µM) and the “IC50 U87 MG” value [2] is reported as 0.67 µg/mL (≈ 0.842 µM). For the same compound, the “IC90 U87 MG” value [2] was 3.42 µg/mL (≈ 4.3 µM), the “IC50 Hep-2” value [3] was 0.48 µg/mL (≈ 0.603 µM) and the “IC90 Hep-2” value [3] was over 16 µg/mL. The “IC50 A549” value [4] was 0.89 µg/mL (≈ 1.12 µM), the “IC90 A549” value [4] was over 16 µg/mL and the “IC50 Huh7” value [5] was 0.66 µg/mL (≈ 0.829 µM). The “IC90 Huh7” value [5] was 7.6 µg/mL (≈ 9.55 µM), the “IC50 CNE” value [6] was 0.77 µg/mL (≈ 0.967 µM) and the “IC90 CNE” value [6] was over 16 µg/mL. The “IC50 MGC 803” value [7] was 0.5 µg/mL (≈ 0.628 µM), the “IC90 MGC 803” value [7] was 12 µg/mL (≈ 15.1 µM) and the “IC50 RKO” value [8] was 0.22 µg/mL (≈ 0.276 µM). The “IC90 RKO” value [8] was 0.87 µg/mL (≈ 1.09 µM), the “IC50 MG 63” value ([9]; MTT) was 0.21 µg/mL (≈ 0.264 µM) and the “IC90 MG 63” value ([9]; MTT) was 9.43 µg/mL (≈ 11.8 µM). For the same compound, the “IC50 Hela” value [10] was 0.87 µg/mL (≈ 1.09 µM), the “IC90 Hela” value [10] was over 16 µg/mL and the “IC50 CaES-17” value [11] was 1.24 µg/mL (≈ 1.56 µM). The “IC90 CaES-17” value [11] was 16 µg/mL (≈ 20.1 µM), the “IC50 PC-3” value [12] was 0.82 µg/mL (≈ 1.03 µM) and the “IC90 PC-3” value [12] was over 16 µg/mL. For the same compound, the “IC50 PANC-1” value ([13]; MTT) was 0.83 µg/mL (≈ 1.04 µM), the “IC90 PANC-1” value ([13]; MTT) was over 16 µg/mL and the “IC50 SK-OV-3” value ([14]; MTT) was 1.94 µg/mL (≈ 2.44 µM). The “IC90 SK-OV-3” value ([14]; MTT) was over 16 µg/mL, the “IC50 RPMI8226” value ([15]; MTT) was 0.29 µg/mL (≈ 0.364 µM) and the “IC90 RPMI8226” value ([15]; MTT) was 1.82 µg/mL (≈ 2.29 µM). For the same compound, the “IC50 NB4” value [16] was 0.2 µg/mL (≈ 0.251 µM), the “IC90 NB4” value [16] was 0.49 µg/mL (≈ 0.616 µM) and the “IC50 Jurkat” value [17] was 0.3 µg/mL (≈ 0.377 µM). For the same compound, the “IC90 Jurkat” value [17] was at least 16 µg/mL, the “IC50 Kasumi-1” value ([18]; MTT) was 0.14 µg/mL (≈ 0.176 µM) and the “IC90 Kasumi-1” value ([18]; MTT) was 0.47 µg/mL (≈ 0.591 µM). The “IC50 K562/adr” value [19] was 0.9 µg/mL (≈ 1.13 µM), the “IC90 K562/adr” value [19] was 3.72 µg/mL (≈ 4.67 µM) and the “IC50 H9” value [20] was 0.47 µg/mL (≈ 0.591 µM). The “IC90 H9” value [20] was 1.24 µg/mL (≈ 1.56 µM).
